From patent US4778796A, “ω-(3-pyridyl)alkenamide derivatives and anti-allergenic pharmaceutical compositions containing same” (Dainippon Pharmaceutical Co., Ltd., priority 1985, dated 1988)

Columns and labels:
[1] = test system: passive cutaneous anaphylaxis (PCA); assay: Inhibitory effect on passive cutaneous anaphylaxis (PCA) in rats; type: in vivo, rat (male Wistar); conditions: Rattus norvegicus; 20 mg/kg, oral, 1 hour before antigen challenge; read-out: Inhibition (PCA in rats)
Experimental: (1) Inhibitory effect on passive cutaneous anaphylaxis (PCA) in rats:
This test was carried out by the method of Perper et al. [cf.
Male Wistar rats (130-180 g) were injected with 0.1 ml of a dilute solution of mouse antiserum to egg albumin in two sites of the shaved ventral skin. Forty-eight hours later each rat was challenged by an intravenous injection of 2 mg of the antigen together with 1 ml of a 0.5% Evan's blue saline solution. The rats were sacrificed 30 minutes after the challenge. The area of the blueing lesions was measured on the undersurface of the skin. The average value of the two lesions of each rat was regarded as the response of the rat. Test compounds in a dose of 20 mg/kg, dissolved or suspended in a 0.5% aqueous tragacanth solution, were administered orally 1 hour before the antigen challenge. The inhibitory rate was determined by comparing the responses of the rats given each test compound with those of the rats given only a 0.5% aqueous tragacanth solution. Each group of 3 rats was used for each test compound. The mouse antiserum to egg albumin was produced by the method of Levine and Vaz [cf. Int. Arch. Allergy Appl.

[2] = test system: histamine-induced contraction of isolated guinea pig trachea; assay: Inhibitory effect on histamine-induced contraction of isolated guinea pig trachea; set-up: species or system guinea pig (male Hartley)
Experimental: (2) Inhibitory effect on histamine-induced contraction of isolated guinea pig trachea:
Male Hartley guinea pigs (400-700 g) were used. Zig-zag strips of guinea pig trachea were prepared by the method of Emmerson and Mackay [cf. J. Pharm. […] Dose-response curves for histamine were obtained before and 5 minutes after the addition of test compounds. Inhibitory rate was calculated from contraction heights in 3×10^-5 M of histamine without vs. with test compound.

[3] = test system: contact hypersensitivity to oxazolone; assay: Inhibitory effect on contact hypersensitivity to oxazolone in mice; type: in vivo, mouse (male ICR); conditions: topical, 24 hours after challenge
Experimental: (3) Inhibitory effect on contact hypersensitivity to oxazolone in mice:
This test was carried out by the method of Evans et al. [cf. Brit.
Male ICR mice (18-20 g) were used. The abdominal region of the mice was carefully clipped with an electric clipper, and 0.1 ml of a 0.5 w/v % oxazolone solution in absolute ethanol was gently rubbed into the clipped area. Five days after the sensitization 20 μl of a 0.5 w/v % oxazolone solution in acetone or chloroform, or the solution containing test compound was applied to both sides of the right ear. The left ear was not treated. Twenty-four hours after the challenge, the animals were sacrificed with diethyl ether. The circular parts (5.5 mm in diameter) of both ears were removed by punching and then weighed. The inhibitory rate was determined by comparing the ear swelling of the mice treated with oxazolone containing test compound with that of the mice treated with oxazolone. Each group of 8 mice was used for each dose of the test compound.

Q: What does the source list for Cc1ccc(C=CC(=O)NCCCCN2CCN(C(c3ccccc3)c3ccccc3)CC2)cn1 [Example 2, N-[3-(6-methyl-3-pyridyl)acryloyl]-4-(4-diphenylmethyl-1-piperazinyl)butylamine]?
A: inhibition in vivo at 20 mg/kg [1]: 81.9%; IC50 ([2]; 3×10^-5 M histamine, isolated guinea pig trachea, read-out: Anti-hist. activity IC50): 1.1 µM; antihistamine activity (in words) ([2]; compared with ketotifen fumarate): potent antihistamine activity, though fairly inferior to that of ketotifen fumarate; % Inhibition of ear swelling ([3]; 0.3 mg/ear): 40.8%; % Inhibition of ear swelling ([3]; 1.0 mg/ear): 90.0%
